The test system of the experiment is K. pneumoniae UC 58. In words: standard microplate test in BHI Agar, MIC. The class given is cell-based. The settings on record: Klebsiella pneumoniae, UC58, 20 h. As for the experimental part:
The compounds VII, XI, XVβ, XVα and XVI were tested in a standard microplate test in BHI (Brain Heart Infusion) Agar at a concentration of 1 mg./ml. and dilutions thereof at 37° incubation temperature. The end points are read at 20 hours. BHI Agar is supplied by Difco Laboratories, Detroit, Mich., U.S.A. and has the following compositions:
Calf brains, infusion from: 200 gm.
Beef heart, infusion from: 250 gm.
Bacto Proteose-peptone, Difco: 10 gm.
Bacto-Dextrose, Difco: 1 gm.
Disodium phosphate: 2.5 gm.

Converted amounts (≈) assume the structure as drawn. Where two headings read alike, the source gives them in different places.

For the compound `NC[C@H]1O[C@H](O[C@H]2[C@H](O)[C@@H](O)[C@H](N)C[C@@H]2N)[C@H](N)[C@@H](O)[C@@H]1O` [Neamine], the MIC is, setting by setting: (read-out: Minimal Inhibitory Concentration) 7.8 µg/mL (≈ 24.2 µM); (read-out: Minimum Inhibitory Concentration) 15.6 µg/mL (≈ 48.4 µM).

Values taken from patent publication US4232148A, “6-Deoxyneamines” (The Upjohn Company, priority 1979, dated 1980).
